# Assay results: patent publication US20230078425A1, “COMPOSITIONS AND METHODS FOR GENERATING SYNTHETIC LETHALITY IN TUMORS” (Engine Biosciences Pte. Ltd., priority 2021, published 2023)
# Tested on: LS180 cells
# Assay: CombiGEM CRISPR/Cas9 double-knockout screen (gene A biomarker + PKMYT1), barcode LFC and GI score, LS180
# Type: cell-based, human
# Source text: A combinatorial genetic en masse (CombiGEM™) screen is used to validate synthetic lethal pairs identified by the computational methods described in Example 1. Methods of performing CombiGEM™ are known in the art and described in U.S. Pat. No. 9,315,806; Bari, et al. (2017) Scientific Reports 7:6993; Wong, et al (2016) PNAS 113:2544-2549, each of which are incorporated by reference in their entirety. This example provides an overview of the pooled screening method to validate predicted synthetic lethal pairs of gene A biomarkers and gene B targets.
# Briefly, oligonucleotide synthesis is used to generate a library of barcoded gRNA target sequences directed to gene A biomarkers (“gene A gRNA library”) and a library of barcoded gRNA target sequences directed to gene B targets (“gene B gRNA library”). […]
# The barcoded sgRNA lentiviral libraries are evaluated in Cas9-expressing cancer cell lines (e.g., HT29 and/or LS180 cell lines). […] Genomic DNA is harvested and used for quantification of the integrated barcodes using a combination of barcode amplification by PCR and sequencing by NGS. […] The barcode reads are normalized per million reads for each sample. To measure cell proliferation, barcode count ratios of normalized barcode reads were calculated as fold changes. […]
substance,measurement,setting,value
IGF1,GI,"gene interaction score = observed minus expected (gene A LFC + gene B LFC) double-knockout LFC, gene B = PKMYT1, LS180 cells",−1.07
same,LFC (gene A * B),"log2 fold-change of barcode counts, double knockout of gene A biomarker and PKMYT1, Cas9-expressing LS180 cells",−1.68
